Consider ten compounds from patent publication US10202389B2, “Pyrazolopyrimidinyl inhibitors of ubiquitin-activating enzyme” (Millennium Pharmaceuticals, Inc., priority 2012, dated 2019).

This assay concerns the target recombinant human UAE (Homo sapiens (Human), UniProt P22314). The assay is described as follows: Ubiquitin Activating Enzyme (UAE) HTRF Assay. Conditions: read-out: % inhibition @0.111 μM. A general note: TR-FRET usually uses a lanthanide donor and a delayed reading to cut background.

Chain of recombinant human UAE (P22314 whole entry): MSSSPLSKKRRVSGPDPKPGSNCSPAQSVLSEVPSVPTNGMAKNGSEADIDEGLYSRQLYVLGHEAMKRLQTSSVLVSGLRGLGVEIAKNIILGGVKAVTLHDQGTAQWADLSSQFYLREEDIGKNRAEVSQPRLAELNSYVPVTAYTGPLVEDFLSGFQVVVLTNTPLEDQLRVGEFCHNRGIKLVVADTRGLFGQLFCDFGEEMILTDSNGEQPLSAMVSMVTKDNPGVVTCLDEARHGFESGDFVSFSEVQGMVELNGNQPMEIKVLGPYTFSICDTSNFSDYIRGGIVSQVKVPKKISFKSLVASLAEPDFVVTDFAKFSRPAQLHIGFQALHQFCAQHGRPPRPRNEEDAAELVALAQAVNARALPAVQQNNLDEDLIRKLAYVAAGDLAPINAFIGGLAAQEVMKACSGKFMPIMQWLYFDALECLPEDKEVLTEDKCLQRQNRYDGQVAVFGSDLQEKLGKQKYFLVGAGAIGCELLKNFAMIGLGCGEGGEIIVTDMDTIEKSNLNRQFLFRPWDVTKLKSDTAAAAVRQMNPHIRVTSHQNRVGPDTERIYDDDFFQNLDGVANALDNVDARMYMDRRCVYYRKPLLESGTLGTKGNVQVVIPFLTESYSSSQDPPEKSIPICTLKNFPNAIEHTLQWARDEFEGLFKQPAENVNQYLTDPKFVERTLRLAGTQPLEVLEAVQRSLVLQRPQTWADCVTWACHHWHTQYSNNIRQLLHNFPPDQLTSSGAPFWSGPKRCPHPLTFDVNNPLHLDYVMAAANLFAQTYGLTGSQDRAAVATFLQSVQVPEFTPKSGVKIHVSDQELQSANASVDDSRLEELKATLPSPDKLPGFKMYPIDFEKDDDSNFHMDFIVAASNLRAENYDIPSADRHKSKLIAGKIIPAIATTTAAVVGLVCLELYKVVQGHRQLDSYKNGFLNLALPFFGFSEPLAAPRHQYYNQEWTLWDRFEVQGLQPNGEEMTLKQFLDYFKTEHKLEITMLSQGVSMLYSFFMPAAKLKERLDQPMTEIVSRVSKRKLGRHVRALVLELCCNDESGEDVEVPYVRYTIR
Description: After incubation for 120 minutes, quantification of the FRET is performed on the Pherostar (BMG).
For compounds whose values are marked with an asterisk (*), mouse UAE was used. For all other compounds, human UAE was used.

Consider `NS(=O)(=O)OC[C@H]1C[C@@H](Nc2ccnc3cc(-c4cc(F)c5ccccc5c4)nn23)[C@H](O)[C@@H]1O` [Compound I-118, (s.e.)-((1R,2R,3S,4R)-4-(2-(4-fluoronaphthalen-2-yl)pyrazolo[1,5-a]pyrimidin-7-ylamino)-2,3-dihydroxycyclopentyl)methyl sulfamate], for which the inhibition (in general, the change of the read-out against control, counted positive when it falls) at 0.111 µM is 100%.

Regarding `NS(=O)(=O)OC[C@H]1C[C@@H](Nc2ccnc3cc(-c4ccc(C(F)(F)F)s4)nn23)[C@H](O)[C@@H]1O` (relative stereo) [Compound I-060, (rac)-((1R,2R,3S,4R)-2,3-Dihydroxy-4-((2-(5-(trifluoromethyl)thiophen-2-yl)pyrazolo[1,5-a]pyrimidin-7-yl)amino)cyclopentyl)methyl rel-sulfamate], the inhibition at 0.111 µM was 89%.

As for `NS(=O)(=O)OC[C@H]1C[C@@H](Nc2ccnc3cc(-c4cccc(N5CCCCC5)c4)nn23)[C@H](O)[C@@H]1O` (relative stereo) [Compound I-077, (rac)-((1R,2R,3S,4R)-2,3-dihydroxy-4-(2-(3-(piperidin-1-yl)phenyl)pyrazolo[1,5-a]pyrimidin-7-ylamino)cyclopentyl)methyl rel-sulfamate], the inhibition at 0.111 µM is 100%.

Regarding `NS(=O)(=O)OC[C@H]1C[C@@H](Nc2ccnc3cc(-c4cccc(-c5ccccc5)c4)nn23)[C@H](O)[C@@H]1O` (relative stereo) [Compound I-003, (rac)((1R,2R,3S,4R)-4-(2-(biphenyl-3-yl)pyrazolo[1,5-a]pyrimidin-7-ylamino)-2,3-dihydroxycyclopentyl)methyl rel-sulfamate], the inhibition at 0.111 µM worked out at 100%.

On to `NS(=O)(=O)OC[C@H]1C[C@@H](Nc2ccnc3cc(-c4cccc(OC(F)(F)F)c4)nn23)[C@H](O)[C@@H]1O` (relative stereo) [Compound I-040, (rac)-((1R,2R,3S,4R)-2,3-Dihydroxy-4-((2-(3-(trifluoromethoxy)phenyl)pyrazolo[1,5-a]pyrimidin-7-yl)amino)cyclopentyl)methyl rel-sulfamate], for which the inhibition at 0.111 µM turned out to be 100%.

As to `Cc1ccc(-c2cc3nccc(N[C@@H]4C[C@H](COS(N)(=O)=O)[C@@H](O)[C@H]4O)n3n2)c2ccccc12` [Compound I-115, (s.e.)-((1R,2R,3S,4R)-2,3-dihydroxy-4-(2-(4-methylnaphthalen-1-yl)pyrazolo[1,5-a]pyrimidin-7-ylamino)cyclopentyl)methyl sulfamate], the inhibition at 0.111 µM was determined as 100%.

Take `NS(=O)(=O)OC[C@H]1C[C@@H](Nc2ccnc3cc(-c4cccc5[nH]ccc45)nn23)[C@H](O)[C@@H]1O` (relative stereo) [Compound I-075, (rac)-((1R,2R,3S,4R)-4-(2-(1H-indol-4-yl)pyrazolo[1,5-a]pyrimidin-7-ylamino)-2,3-dihydroxycyclopentyl)methyl rel-sulfamate]: the inhibition at 0.111 µM was found to be 100%.

With `CCCOC(C)(C)c1cccc(-c2cc3nccc(N[C@@H]4C[C@H](COS(N)(=O)=O)[C@@H](O)[C@H]4O)n3n2)c1` (relative stereo) [Compound I-090, (rac)-((1R,2R,3S,4R)-2,3-dihydroxy-4-(2-(3-(2-propoxypropan-2-yl)phenyl)pyrazolo[1,5-a]pyrimidin-7-ylamino)cyclopentyl)methyl rel-sulfamate], the inhibition at 0.111 µM amounted to 100%.

Consider `COC(=O)c1ccc2c(-c3cc4nccc(N[C@@H]5C[C@H](COS(N)(=O)=O)[C@@H](O)[C@H]5O)n4n3)cccc2c1` (relative stereo) [Compound I-096, (rac)-methyl rel-5-[7-({(1R,2S,3R,4R)-2,3-dihydroxy-4-[(sulfamoyloxy)methyl]cyclopentyl}amino)pyrazolo[1,5-a]pyrimidin-2-yl]-2-naphthoate], for which the inhibition at 0.111 µM came out at 100%.

Regarding `NS(=O)(=O)OC[C@H]1C[C@@H](Nc2ccnc3cc(-c4cccc(C5=CCCC5)c4)nn23)[C@H](O)[C@@H]1O` (relative stereo) [Compound I-047, (rac)-(1R,2R,3S,4R)-4-(2-(3-cyclopentenylphenyl)pyrazolo[1,5-a]pyrimidin-7-ylamino)-2,3-dihydroxycyclopentyl)methyl rel-sulfamate], the inhibition at 0.111 µM was determined as 100%.
